According to US5178662A, “Benzaldehyde acetal compounds, preparation process thereof, and herbicidal compositions containing the same as active ingredients” (Mitsui Toatsu Chemicals, Inc., priority 1990, dated 1993):

Assays:
[1] = tested on: johnsongrass emerging from rhizome; assay: Application test on johnsongrass emerging from rhizome; format: in vivo; settings: foliar application at stage of 4-5 leaves, application rate of active ingredient 20 (unit not given), emulsion, 50th day after spray
Procedure: (§1) Resin-made 1/1000-are pots were filled with the soil of an upland field. After they were fertilized, cotton and soybean were seeded and 3 cm soil covering was applied. In addition, amaranth, common lambs-quarters, barnyardgrass, green foxtail, large crabgrass and johnsongrass were seeded and 1 cm soil covering was applied. One day later, a wettable powder prepared from a predetermined amount of each test compound in a similar manner to the procedures described in Formulation Example 1 was diluted with water and then sprayed evenly at an application rate equal to 10 l per are onto the surface of the soil by means of a pressure-operated sprayer. The weeds and crops were allowed to grow in a green house and influence to them were observed on the 50th day after the spray. The degree of damages of each test plant and the degree of injury to each crop were determined by measuring fresh weight in each group and indicated by % calculated according to the following formula. [formula]
Resin-made 1/1000-are pots were filled with the soil of an upland field. After they were fertilized, rhizome of johnsongrass were transplanted to the pots and 3 cm soil covering was applied. They were allowed to grow in a green house. When each johnsongrass grew to the stage of 4-5 leaves, an emulsion formulated from a predetermined amount of each test compound in a similar manner to the procedures described in Formulation Example 11 was diluted with water and then sprayed at a predetermined application rate by means of a pressure-operated sprayer. The application rate was controlled at 5 l per are. The effect of each compound against the johnsongrass emerging from its rhizome was observed on the 50th day after the spray of the herbicides. The results are shown in Table 5 in which the herbicidal effect against johnsongrass is shown in a similar manner to Test 2.

[2] = tested on: Crabgrass (Digitaria adscendens); assay: Upland soil application test, large crabgrass; format: in vivo; settings: 1200 h, soil application one day after seeding, 50 g ai/a, wettable powder, fresh weight on 50th day after spray, read-out: Herbicidal effects Crabgrass (Digitaria adscendens)
Procedure: as §1

[3] = tested on: Barnyardgrass (Echinochloa crusgalli); assay: Upland foliar application test, barnyardgrass; format: in vivo; settings: Echinochloa crus-galli, 960 h; foliar application at stage of 2-3 leaves, 50 g ai/a, emulsion, 40th day after spray; read-out: Herbicidal effects Barnyardgrass (Echinochloa crusgalli)
Procedure: (§2) Resin-made 1/1000-are pots were filled with the soil of an upland field. After they were fertilized, cotton and soybean were seeded and 3 cm soil covering was applied. Five days later, amaranth, common lambsquarters, barnyardgrass, green foxtail, large crabgrass and johnsongrass were seeded and 1 cm soil covering was applied. They were allowed to grow in a green house. When each plant grew to the stage of 2-3 leaves, an emulsion formulated from a predetermined amount of each test compound in a similar manner to the procedures described in Formulation Example 11 was diluted with water and then sprayed at a predetermined application rate by means of a pressure-operated sprayer. The application rate was controlled at 5 l per are. Influence to the crops and weeds were observed on the 40th day after the spray of the herbicides. The results are shown in Table 4 in which the degree of damages of each test plant and the degree of injury to each crop are shown in a similar manner to Test 2.

[4] = tested on: Amaranth (Amaranthus viridis); assay: Upland soil application test, amaranth; format: in vivo; settings: 1200 h, soil application one day after seeding, 50 g ai/a, wettable powder, fresh weight on 50th day after spray, read-out: Herbicidal effects Amaranth (Amaranthus viridis)
Procedure: as §1

[5] = tested on: Cotton (Gossypium indicum); assay: Upland soil application test, crop injury cotton; format: in vivo; settings: soil application one day after seeding, 50 g ai/a, wettable powder, fresh weight on 50th day after spray
Procedure: as §1

[6] = tested on: Amaranth (Amaranthus viridis); assay: Upland foliar application test, amaranth; format: in vivo; settings: 960 h, foliar application at stage of 2-3 leaves, 50 g ai/a, emulsion, 40th day after spray, read-out: Herbicidal effects Amaranth (Amaranthus viridis)
Procedure: as §1, §2

[7] = tested on: Crabgrass (Digitaria adscendens); assay: Upland foliar application test, large crabgrass; format: in vivo; settings: 960 h, foliar application at stage of 2-3 leaves, 50 g ai/a, emulsion, 40th day after spray, read-out: Herbicidal effects Crabgrass (Digitaria adscendens)
Procedure: as §1, §2

[8] = tested on: Foxtail (Setaria viridis); assay: Upland foliar application test, green foxtail; format: in vivo; settings: 960 h, foliar application at stage of 2-3 leaves, 50 g ai/a, emulsion, 40th day after spray, read-out: Herbicidal effects Foxtail (Setaria viridis)
Procedure: as §1, §2

common lambsquarters [9] = assay: Upland soil application test, common lambsquarters; format: in vivo; settings: Chenopodium album, 1200 h; soil application one day after seeding, 50 g ai/a, wettable powder, fresh weight on 50th day after spray; read-out: Herbicidal effects Common lambquarters
Procedure: as §1

Soybean (Glycine max) [10] = assay: Upland foliar application test, crop injury soybean; format: in vivo; settings: foliar application at stage of 2-3 leaves, 50 g ai/a, emulsion, 40th day after spray
Procedure: as §2

[11] = tested on: Barnyardgrass (Echinochloa crusgalli); assay: Upland soil application test, barnyardgrass; format: in vivo; settings: Echinochloa crus-galli, 1200 h; soil application one day after seeding, 50 g ai/a, wettable powder, fresh weight on 50th day after spray; read-out: Herbicidal effects Barnyardgrass (Echinochloa crusgalli)
Procedure: as §1

Johnsongrass [12] = assay: Upland soil application test, johnsongrass; format: in vivo; settings: Sorghum halepense, 1200 h; soil application one day after seeding, 50 g ai/a, wettable powder, fresh weight on 50th day after spray; read-out: Herbicidal effects Johnsongrass
Procedure: as §1

[13] = tested on: Foxtail (Setaria viridis); assay: Upland soil application test, green foxtail; format: in vivo; settings: 1200 h, soil application one day after seeding, 50 g ai/a, wettable powder, fresh weight on 50th day after spray, read-out: Herbicidal effects Foxtail (Setaria viridis)
Procedure: as §1

[14] = tested on: ALS (acetolactate syntase) from barnyardgrass seedlings; assay: ALS (acetolactate syntase) inhibition test, barnyardgrass enzyme; format: biochemical; settings: 10,000 ppm (0.5 μg/0.5 ml) of compound; 1 hour at 30° C.; absorbance at 525 nm
Procedure: (§3) To determine the selectivity in enzyme level between crops and weeds, an ALS inhibition test was conducted using pea as a typical broadleaf crop and barnyardgrass as a representative gramineous weeds.
(§4) After seeds of pea and barnyardgrass were allowed to germinate at 25° C. for 8-14 days in a dark place, partially-purified suspensions (Suspensions A) of acetolactate syntase were separately obtained from the seedlings in accordance with the procedures described in the literature, Plant Physiology, 75, 827-831. In a test tube, 0.5 mg of one of test compounds was weighed, followed by the addition of 0.15 ml of a 20 mM K2 HPO4 solution and 0.25 ml of a reaction substrate medium which consisted of 40 mM of K2 HPO4, 40 mM of sodium pyruvate, 1 mM of TPP, 1 mM of MgCl2 and 20 μM of FAD so that 0.4 ml of a reaction solution (Solution B) was prepared. Added to 0.4 ml of Solution B was 0.1 ml of Suspension A. After the resultant mixture was shaken for 1 hour in a thermostat water bath controlled at 30° C., 50 μl of 6N sulfuric acid were added to terminate the reaction.
(§5) Next, the test tube with the reaction-terminated liquid mixture contained therein was transferred into a thermostat water bath controlled at 60° C. and was heated for 15 minutes. Thereafter, 0.5 ml of a 0.5% creatine solution and 0.5 ml of a 5% alkaline α-naphthol solution were added, and the resultant mixture was maintained at 60° C. for 15 minutes. As a result, the test solution developed a pink-to-red color. After the above operation, the absorbance of the test solution at 525 nm was measured by a spectrophotometer (Absorbance 1 of Test Compound).
(§6) Further, the absorbance (Absorbance 2 of Blank) of a solution obtained by subjecting a portion of Solution B to the above procedures without addition of any test compound and the absorbance (Absorbance 3 of sulfuric acid) of another solution obtained by subjecting another portion of Solution B to the above procedures which using 50 μl of 6N sulfuric acid as a test compound were also measured.

Soybean (Glycine max) [15] = assay: Upland soil application test, crop injury soybean; format: in vivo; settings: soil application one day after seeding, 50 g ai/a, wettable powder, fresh weight on 50th day after spray
Procedure: as §1

[16] = tested on: Cotton (Gossypium indicum); assay: Upland foliar application test, crop injury cotton; format: in vivo; settings: foliar application at stage of 2-3 leaves, 50 g ai/a, emulsion, 40th day after spray
Procedure: as §1, §2

[17] = tested on: ALS (acetolactate syntase) from pea seedlings; assay: ALS (acetolactate syntase) inhibition test, pea enzyme; format: biochemical; settings: 10,000 ppm (0.5 μg/0.5 ml) of compound; 1 hour at 30° C.; absorbance at 525 nm
Procedure: as §3, §4, §5, §6

common lambsquarters [18] = assay: Upland foliar application test, common lambsquarters; format: in vivo; settings: Chenopodium album, 960 h; foliar application at stage of 2-3 leaves, 50 g ai/a, emulsion, 40th day after spray; read-out: Herbicidal effects Common lambquarters
Procedure: as §2

Johnsongrass [19] = assay: Upland foliar application test, johnsongrass; format: in vivo; settings: Sorghum halepense, 960 h; foliar application at stage of 2-3 leaves, 50 g ai/a, emulsion, 40th day after spray; read-out: Herbicidal effects Johnsongrass
Procedure: as §2

Structure (SMILES) | Herbicidal effect against johnsongrass emerging from rhizome [1] [%] | pest or weed control at 5000 g/ha [2] [%] | pest or weed control at 5000 g/ha [3] [%] | pest or weed control at 5000 g/ha [4] [%] | Crop injury Cotton (Gossypium indicum) [5] [%] | pest or weed control at 5000 g/ha [6] [%] | pest or weed control at 5000 g/ha [7] [%] | pest or weed control at 5000 g/ha [8] [%] | pest or weed control at 5000 g/ha (common lambsquarters [9]) [%] | Crop injury Soybean (Glycine max) (Soybean (Glycine max) [10]) [%] | pest or weed control at 5000 g/ha [11] [%] | pest or weed control at 5000 g/ha (Johnsongrass [12]) [%] | pest or weed control at 5000 g/ha [13] [%] | Enzymoreaction inhibition rate (%) Barnyardgrass [14] [%] | Crop injury Soybean (Glycine max) (Soybean (Glycine max) [15]) [%] | Crop injury Cotton (Gossypium indicum) [16] [%] | Enzymoreaction inhibition rate (%) Pea [17] [%] | pest or weed control at 5000 g/ha (common lambsquarters [18]) [%] | pest or weed control at 5000 g/ha (Johnsongrass [19]) [%]
CCCCCCCOC(OCCCCCCC)c1ccccc1Oc1nc(OC)cc(OC)n1 [Compound No. 6] | 85 | 85 | 95 | 95 | 0 | 95 | 90 | 95 | 90 | 0 | 95 | 100 | 100 | 100 | 0 | 0 | 0 | 90 | 100
COc1cc(OC)nc(Oc2ccccc2C(OC)OC)n1 [Comp. Comp'd C, 2-(4,6-dimethoxypyrimidin-2-yloxy)benzaldehyde dimethylacetal, reference compound] | 40 | 100 | 100 | 80 | 55 | 100 | 90 | 95 | 100 | 40 | 100 | 100 | 100 | – | 50 | 50 | – | 90 | 100
COc1cc(OC)nc(Oc2c(Cl)cccc2C(OC)OC)n1 [Comp. Comp'd E, reference compound] | 5 | 60 | 65 | 45 | 30 | 60 | 45 | 50 | 50 | 30 | 55 | 35 | 60 | – | 30 | 30 | – | 65 | 30
